From ChEMBL document CHEMBL1201862, “PubChem BioAssay data set” (2004)
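A five-concentration, 48-hour dose response in 96-well plates underlies each endpoint, interpolated linearly between surrounding concentrations. Abbreviation: GI50, concentration required for 50% inhibition of growth.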 Calls of active or inactive are those of the source. No stated cut-off is given here; in the data, active = GI50 up to about 1.1 µM and inactive = higher.

How the values were obtained:
Test in all cases: growth of human tumour cells (NCI), 48 h
DLD-1 = test system: DLD-1
NCI-H522 = test system: NCI-H522
RXF 393 = test system: RXF 393
SNB-75 = test system: SNB-75
OVCAR-4 = test system: OVCAR-4
IGROV-1 = test system: IGROV-1
HOP-92 = test system: HOP-92
HOP-62 = test system: HOP-62
DMS-273 = test system: DMS-273
SF-268 = test system: SF-268
NCI-H460 = test system: NCI-H460
786-0 = test system: 786-0
CCRF-CEM = test system: CCRF-CEM
NCI-H226 = test system: NCI-H226
OVCAR-5 = test system: OVCAR-5
ACHN = test system: ACHN
Malme-3M = test system: Malme-3M
KM12 = test system: KM12
SK-MEL-2 = test system: SK-MEL-2
MOLT-4 = test system: MOLT-4
NCI-H23 = test system: NCI-H23
UACC-62 = test system: UACC-62
SF-539 = test system: SF-539
HOP-18 = test system: HOP-18
SK-OV-3 = test system: SK-OV-3
OVCAR-3 = test system: OVCAR-3
M14 = test system: M14
SK-MEL-5 = test system: SK-MEL-5
SR = test system: SR
UO-31 = test system: UO-31
COLO 205 = test system: COLO 205
KM-20L2 = test system: KM-20L2
A498 = test system: A498
HT-29 = test system: HT-29
A549 = test system: A549
HCC 2998 = test system: HCC 2998
SNB-19 = test system: SNB-19
RPMI-8226 = test system: RPMI-8226
SK-MEL-28 = test system: SK-MEL-28
HCT-15 = test system: HCT-15
UACC-257 = test system: UACC-257
SNB-78 = test system: SNB-78
HCT-116 = test system: HCT-116
HL-60 = test system: HL-60
EKVX = test system: EKVX
SN12C = test system: SN12C
SW-620 = test system: SW-620
CAKI-1 = test system: CAKI-1
K562 = test system: K562
LXFL 529 = test system: LXFL 529
OVCAR-8 = test system: OVCAR-8
TK-10 = test system: TK-10
SF-295 = test system: SF-295
U-251 = test system: U-251

O=C1c2cccc3cc([N+](=O)[O-])cc(c23)C(=O)N1CCNCCNCCNCCN1C(=O)c2cccc3cc([N+](=O)[O-])cc(c23)C1=O
GI50 (DLD-1): < 1 nM (active) | GI50 (NCI-H522): 116 nM (active) | GI50 (RXF 393): 122 nM (active) | GI50 (SNB-75): 10.8 nM (active) | GI50 (OVCAR-4): 11.7 nM (active) | GI50 (IGROV-1): 10 nM (active) | GI50 (HOP-92): 3.43 nM (active) | GI50 (HOP-62): 1.43 nM (active) | GI50 (DMS-273): < 1 nM (active) | GI50 (SF-268): 5.64 nM (active) | GI50 (NCI-H460): < 1 nM (active) | GI50 (786-0): < 1 nM (active) | GI50 (CCRF-CEM): 1.22 nM (active) | GI50 (NCI-H226): 124 nM (active) | GI50 (OVCAR-5): 11.1 nM (active) | GI50 (ACHN): 10 nM (active) | GI50 (Malme-3M): 111 nM (active) | GI50 (KM12): < 1 nM (active) | GI50 (SK-MEL-2): 9.95 nM (active) | GI50 (MOLT-4): < 1 nM (active) | GI50 (NCI-H23): 1.93 nM (active) | GI50 (UACC-62): 3.22 nM (active) | GI50 (SF-539): 5.47 nM (active) | GI50 (HOP-18): 149 nM (active) | GI50 (SK-OV-3): 21.2 nM (active) | GI50 (OVCAR-3): 109 nM (active) | GI50 (M14): 18.8 nM (active) | GI50 (SK-MEL-5): 152 nM (active) | GI50 (SR): 10 nM (active) | GI50 (UO-31): 33 nM (active) | GI50 (COLO 205): 10 nM (active) | GI50 (KM-20L2): 10 nM (active) | GI50 (A498): 12.8 nM (active) | GI50 (HT-29): < 1 nM (active) | GI50 (A549): < 1 nM (active) | GI50 (HCC 2998): 10 nM (active) | GI50 (SNB-19): < 1 nM (active) | GI50 (RPMI-8226): 10 nM (active) | GI50 (SK-MEL-28): 31.1 nM (active) | GI50 (HCT-15): 10 nM | GI50 (UACC-257): 31.1 nM (active) | GI50 (SNB-78): 55.3 nM (active) | GI50 (HCT-116): < 1 nM (active) | GI50 (HL-60): 10 nM (active) | GI50 (EKVX): 112 nM (active) | GI50 (SN12C): 2.51 nM (active) | GI50 (SW-620): < 1 nM (active) | GI50 (CAKI-1): < 1 nM (active) | GI50 (K562): < 1 nM (active) | GI50 (LXFL 529): 10 nM (active) | GI50 (OVCAR-8): < 1 nM (active) | GI50 (TK-10): 92 nM (active) | GI50 (SF-295): < 1 nM (active) | GI50 (U-251): 1.98 nM (active)
